In PubChem BioAssay (NCI):
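In this assay, cells in 96-well plates receive the compound at five concentrations for 48 hours. Endpoints are linearly interpolated between the surrounding concentrations. GI50 is the concentration that inhibits growth by half. At the TGI there is no net growth.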

How the values were obtained:
Assay in all cases: DTP human tumour cell line panel, 48 h
[1] = test system: HCC-2998 colon
[2] = test system: IGROV1 ovarian
[3] = test system: K-562 leukemia
[4] = test system: MALME-3M melanoma
[5] = test system: NCI-H23 lung
[6] = test system: OVCAR-3 ovarian
[7] = test system: OVCAR-8 ovarian
[8] = test system: SF-268 CNS
[9] = test system: SNB-19 CNS
[10] = test system: SW-620 colon

Compound | GI50 [1] [µM] | TGI [1] [µM] | GI50 [2] [µM] | TGI [2] [µM] | GI50 [3] [µM] | TGI [3] [µM] | GI50 [4] [µM] | TGI [4] [µM] | GI50 [5] [µM] | TGI [5] [µM] | GI50 [6] [µM] | TGI [6] [µM] | GI50 [7] [µM] | TGI [7] [µM] | GI50 [8] [µM] | TGI [8] [µM] | GI50 [9] [µM] | TGI [9] [µM] | GI50 [10] [µM] | TGI [10] [µM]
C=C(C)[C@@H]1CC[C@]2(C(=O)OC)CC[C@]3(C)[C@H](CC[C@@H]4[C@@](C)(CCc5nn[nH]n5)[C@H](C(=C)C)CC[C@]43C)[C@@H]12 | 15.8 | 30.5 | 17.4 | 46.2 | 18.4 | > 100 | 16.3 | 31.7 | 16.4 | 39.4 | 13.5 | 27 | 28.6 | > 100 | 15.7 | 34.9 | 15.4 | 35.7 | 19.3 | 46
CCn1c(-c2nonc2N)nc2cnc(Oc3cccc(NC(=O)c4ccc(OCCN5CCOCC5)cc4)c3)cc21 | 15.2 | > 25 | 2.98 | > 20.3 | 7.38 | > 25 | 4.14 | > 25 | 4.9 | > 25 | 7.17 | > 25 | 6.25 | > 25 | 0.724 | > 25 | 12.1 | > 25 | 4.57 | > 25
CN1CCC2(CC1)C(=O)Nc1cc(NC(=O)c3ccc4c(c3)C[C@@H]3C(C)(C)[C@H](O)[C@H](F)C[C@@]3(C)O4)ccc12 | 14.2 | 48.3 | 13.1 | > 100 | 0.201 | > 100 | 1.49 | 9.79 | 10.6 | 42.5 | 18.5 | 66.8 | 26.6 | > 100 | 6.68 | 31.9 | 1.97 | 22 | 0.588 | 11.5
C[C@]12CC[C@H]3[C@@H](CCC4=CC(=O)CC[C@@]43C)[C@]1(O)CC[C@]2(O)C(=O)CO | – | > 100 | – | > 100 | – | > 100 | – | > 100 | – | > 100 | – | > 100 | – | > 100 | – | > 100 | – | > 100 | – | > 100
O=c1c(-c2cccc3ccccc23)c(-c2cccc3ccccc23)c1=O | – | 4.95 | – | > 100 | – | > 33.3 | – | > 86.2 | – | 9.27 | – | 11.6 | – | 13.6 | – | > 53.7 | – | 61 | – | 58.9
COc1cc2c(cc1OCCCCCOc1ccc(-c3nc4ccccc4s3)cc1)N=C[C@@H]1CCCN1C2=O | 3.02 | 9.06 | 4.39 | 43.5 | 0.914 | 12.2 | 12.5 | 37.9 | 2.6 | 10.5 | 1.54 | > 44 | 3.13 | 21.1 | 5.62 | 31.6 | 5.08 | 20.8 | 3.01 | > 28.6
N#Cc1nc2cc(Cl)c(Cl)cc2nc1-c1ccc(Cl)cc1 | 0.165 | 18.2 | 73.2 | > 100 | > 56.1 | > 100 | > 42.2 | > 100 | > 60.5 | > 100 | 1.89 | > 47.8 | 55.7 | > 100 | 27.4 | > 72.7 | > 43.4 | > 60.6 | > 100 | > 100
O=C(c1ccccc1)c1nc2ccc(Cl)cc2cc1C(Br)Br | – | 2.88 | – | 4.38 | – | 3.55 | – | 5.43 | – | 1.11 | – | 0.856 | – | 1.32 | – | 0.972 | – | 1.42 | – | 0.905
COc1cc(OC)c(OC)cc1/C=C/c1ccccn1 | – | > 10 | – | > 10 | – | > 10 | – | > 10 | – | > 10 | – | > 10 | – | > 10 | – | > 10 | – | > 10 | – | > 10
COc1cc(-c2csc(NC(=O)Nc3ccc(Cl)cc3)n2)cc(OC)c1OC | 3.9 | 18.8 | 3.18 | 29.5 | 3.38 | > 100 | 2.11 | 6.32 | 2.54 | 10.9 | 2.54 | 7.23 | 2.46 | 5.85 | 3.28 | 20.8 | 3.78 | 30.2 | 3.96 | > 100
O=c1c2ccccc2c(=O)n2n1-c1cccc(c1)CSSCc1cccc-2c1 | > 100 | > 100 | > 100 | > 100 | > 100 | > 100 | > 100 | > 100 | > 100 | > 100 | > 100 | > 100 | > 100 | > 100 | > 100 | > 100 | > 100 | > 100 | > 100 | > 100
O=C1C2C3SC(c4cc5ccccc5cc43)C2C(=O)N1c1ccccc1 (stereo unspecified) | – | > 100 | – | > 100 | – | > 100 | – | > 100 | – | > 100 | – | > 100 | – | > 100 | – | > 100 | – | > 100 | – | > 100
COc1ccc(-c2cc(=O)c3c(C)ccnc3[nH]2)cc1 | – | > 100 | – | > 100 | – | > 100 | – | 65.2 | – | 65.2 | 13.9 | 92 | – | > 100 | – | 44.3 | – | > 100 | – | > 100
O=C1CN=C(c2ccccc2)c2ccncc2N1 | – | > 100 | – | > 100 | – | > 100 | – | > 100 | – | > 100 | – | > 100 | – | > 100 | – | > 100 | – | > 100 | – | > 100
N#Cc1cnc2ccc(NCc3cnc[nH]3)cc2c1Nc1ccc(F)c(Cl)c1 | > 100 | > 100 | 2.6 | > 100 | 9.3 | > 100 | 11.9 | 36.1 | > 100 | > 100 | 3.38 | > 100 | 4.51 | > 100 | 5.97 | > 100 | 27 | > 100 | 8.69 | > 100
